Laboratory results: PubChem BioAssay (NCI)
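The concentration for 50% growth inhibition is given as GI50. TGI: concentration producing complete growth inhibition.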

Experiments:
Experiment in all cases: NCI-60 cell line screen, 384-well format
786-0 renal = tested on: 786-0 renal
A498 renal = tested on: A498 renal
A549 NSCLC = tested on: A549 NSCLC
ACHN renal = tested on: ACHN renal
BT-549 breast = tested on: BT-549 breast
CAKI-1 renal = tested on: CAKI-1 renal
DU-145 prostate = tested on: DU-145 prostate
EKVX NSCLC = tested on: EKVX NSCLC
HCC-2998 colon = tested on: HCC-2998 colon
HCT-116 colon = tested on: HCT-116 colon
HCT-15 colon = tested on: HCT-15 colon
HL-60(TB) leukemia = tested on: HL-60(TB) leukemia
HOP-62 NSCLC = tested on: HOP-62 NSCLC
HOP-92 NSCLC = tested on: HOP-92 NSCLC
HS 578T breast = tested on: HS 578T breast
HT29 colon = tested on: HT29 colon
IGROV1 ovarian = tested on: IGROV1 ovarian
K-562 leukemia = tested on: K-562 leukemia
KM12 colon = tested on: KM12 colon
LOX IMVI melanoma = tested on: LOX IMVI melanoma
M14 melanoma = tested on: M14 melanoma
MALME-3M melanoma = tested on: MALME-3M melanoma
MCF7 breast = tested on: MCF7 breast
MDA-MB-231 breast = tested on: MDA-MB-231 breast
MDA-MB-435 melanoma = tested on: MDA-MB-435 melanoma
MDA-MB-468 breast = tested on: MDA-MB-468 breast
MOLT-4 leukemia = tested on: MOLT-4 leukemia
NCI-H226 lung = tested on: NCI-H226 lung
NCI-H23 lung = tested on: NCI-H23 lung

SMILES: Cc1cnc(-c2ccc(-c3ccc(NC(=O)Nc4cccc(C(F)(F)F)c4)cc3F)c3c2C(=O)NC3)[nH]1
- GI50 ([…]-0 renal): 1470 nM
- TGI (786-0 renal): 3730 nM
- GI50 (A498 renal): 134 nM
- TGI (A498 renal): 2210 nM
- GI50 (A549 NSCLC): 1050 nM
- TGI (A549 NSCLC): 6400 nM
- GI50 (ACHN renal): 681 nM
- TGI (ACHN renal): 10300 nM
- GI50 (BT-549 breast): 130 nM
- TGI (BT-549 breast): 2820 nM
- GI50 (CAKI-1 renal): 145 nM
- TGI (CAKI-1 renal): 8830 nM
- GI50 (DU-145 prostate): 1270 nM
- TGI (DU-145 prostate): 7710 nM
- GI50 (EKVX NSCLC): 91.7 nM
- TGI (EKVX NSCLC): 4160 nM
- GI50 (HCC-2998 colon): 2860 nM
- TGI (HCC-2998 colon): 6700 nM
- GI50 (HCT-116 colon): 248 nM
- TGI (HCT-116 colon): 2220 nM
- GI50 (HCT-15 colon): 926 nM
- TGI (HCT-15 colon): 4450 nM
- GI50 (HL-60(TB) leukemia): 16.2 nM
- TGI (HL-60(TB) leukemia): 1050 nM
- GI50 (HOP-62 NSCLC): 103 nM
- TGI (HOP-62 NSCLC): 2030 nM
- GI50 (HOP-92 NSCLC): 685 nM
- TGI (HOP-92 NSCLC): 3310 nM
- GI50 (HS 578T breast): 50.3 nM
- TGI (HS 578T breast): 1530 nM
- GI50 (HT29 colon): 2180 nM
- TGI (HT29 colon): 13600 nM
- GI50 (IGROV1 ovarian): 1320 nM
- TGI (IGROV1 ovarian): 12400 nM
- GI50 (K-562 leukemia): 51.6 nM
- TGI (K-562 leukemia): 1300 nM
- GI50 (KM12 colon): < 10 nM
- TGI (KM12 colon): 1320 nM
- GI50 (LOX IMVI melanoma): 444 nM
- TGI (LOX IMVI melanoma): 2370 nM
- GI50 (M14 melanoma): 126 nM
- TGI (M14 melanoma): 3180 nM
- GI50 (MALME-3M melanoma): 590 nM
- TGI (MALME-3M melanoma): 3820 nM
- GI50 (MCF7 breast): 1080 nM
- TGI (MCF7 breast): 4280 nM
- GI50 (MDA-MB-231 breast): 1680 nM
- TGI (MDA-MB-231 breast): 8560 nM
- GI50 (MDA-MB-435 melanoma): 1270 nM
- TGI (MDA-MB-435 melanoma): 10100 nM
- GI50 (MDA-MB-468 breast): 28.2 nM
- TGI (MDA-MB-468 breast): 75.4 nM
- GI50 (MOLT-4 leukemia): < 10 nM
- TGI (MOLT-4 leukemia): 11.7 nM
- GI50 (NCI-H226 lung): 284 nM
- TGI (NCI-H226 lung): 3150 nM
- GI50 (NCI-H23 lung): 783 nM
- TGI (NCI-H23 lung): 2390 nM
